From patent US8574569B2, “Stabilized protease composition” (Trobio AB, priority 2005, dated 2013)
Like-named read-outs stand apart in the source and are kept apart here. Each block holds one molecule with its values, some of them ahead of it.

Columns and labels:
human thrombin [1] = target: T1, human thrombin (Homo sapiens, UniProt P00734); assay: Stability of human thrombin solutions (fibrinogen clotting activity decay curves, T 70%); type: physicochemical; parameters: The thrombin used in the study is human thrombin derived from plasma; purchased Biovitrum AB, Sweden; host or cells: human plasma
Protocol: This value, denoted “T 70%”, is chosen since it corresponds to what could be accepted as a maximum permitted loss in activity during a life span of a commercial product.
In the experimental studies, a high temperature (37° C.) has been used, as well as a high concentration of enzyme. This has been made in order to obtain stability data in reasonably short times, and not have to wait for months or years.
(§1) The clotting times were measured using an Amelungen Kc 1 coagulometer (Amelungen, Germany). […] From the values obtained, activity decay curves could be constructed.

plasmin = target: T2, plasmin (Homo sapiens, UniProt P00747); assay: Stability of plasmin solutions (Chromozym TH chromogenic substrate, T 70%); type: physicochemical; conditions: for T 70%: 100 μg/ml plasmin in 10 mM HEPES, 0.13 M NaCl, pH 7.4, 37° C.; for increase in stability of plasmin composition, factor: T 70% relative to plasmin without additives, 37° C.
T2 construct: 100 μg/ml of plasmin (specific activity 3.2 units/mg, Sigma-Aldrich); purchased Sigma-Aldrich
T2 sequence (P00747 581-810 limits assumed, species assumed): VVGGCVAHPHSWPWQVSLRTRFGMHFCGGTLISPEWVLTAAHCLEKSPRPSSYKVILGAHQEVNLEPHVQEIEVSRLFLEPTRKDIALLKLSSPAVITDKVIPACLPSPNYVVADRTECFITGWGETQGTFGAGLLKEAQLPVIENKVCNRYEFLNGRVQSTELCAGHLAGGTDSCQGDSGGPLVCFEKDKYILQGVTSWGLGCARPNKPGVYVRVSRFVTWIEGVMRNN
T2 sequence (P00747 97-580 partner limits assumed, species assumed): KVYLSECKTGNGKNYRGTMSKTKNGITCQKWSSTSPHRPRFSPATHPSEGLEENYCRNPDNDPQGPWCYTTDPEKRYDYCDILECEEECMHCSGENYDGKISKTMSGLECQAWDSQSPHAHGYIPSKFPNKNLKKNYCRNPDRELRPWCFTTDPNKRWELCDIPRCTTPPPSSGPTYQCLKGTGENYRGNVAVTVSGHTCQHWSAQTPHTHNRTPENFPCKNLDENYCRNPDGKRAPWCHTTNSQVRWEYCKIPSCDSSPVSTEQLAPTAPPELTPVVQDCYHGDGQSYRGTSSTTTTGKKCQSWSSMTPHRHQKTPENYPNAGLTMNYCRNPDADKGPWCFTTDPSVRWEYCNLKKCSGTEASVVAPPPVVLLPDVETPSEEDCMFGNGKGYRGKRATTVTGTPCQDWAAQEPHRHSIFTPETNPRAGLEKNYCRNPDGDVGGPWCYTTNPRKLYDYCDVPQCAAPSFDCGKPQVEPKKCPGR
Protocol: The stabilization of solutions of plasmin in accordance with the invention was tested. The activity of plasmin was determined using chromogenic peptide substrate Chromozym TH (Pentapharm, Switzerland) and measurement of absorbance change at 405 nm in a spectrophotometer. Solutions containing 100 μg/ml of plasmin (specific activity 3.2 units/mg, Sigma-Aldrich) in 10 mM HEPES and 0.13 M NaCl, pH 7.4, as well as stabilizers as indicated in Table 2 below were incubated at 37° C., and samples were taken out at various time intervals for activity determination.

human thrombin [2] = target: T1, human thrombin; conditions: for Apparent inhibition (%) / Apparent thrombin concentration (U/ml): 89 units/ml human thrombin, 0.01 M HEPES, 0.13 M NaCl, pH 7.4
Protocol: The clotting tests in this experimental setup were performed in 0.01 M HEPES, 0.13 M NaCl buffer of pH 7.4, which is according to standard procedure (EU Pharmacopeia). […] Solutions of various concentrations of morpholine were prepared in the HEPES buffer by adding a concentrated morpholine solution adjusted to pH 7.4.

trypsin = target: T3, trypsin (Bos taurus, UniProt P00760); assay: Stability of trypsin solutions (TAME substrate, T 70%); type: physicochemical; conditions: for T 70%: 100 μg/ml trypsin in 10 mM HEPES, 0.13 M NaCl, pH 7.4, 37° C.; for increase in stabilization of trypsin, factor: T 70% relative to trypsin without additives, 37° C.
T3 construct: 100 μg/ml of trypsin (TPCK-treated, Sigma-Aldrich); purchased Sigma-Aldrich
T3 sequence (P00760 24-246): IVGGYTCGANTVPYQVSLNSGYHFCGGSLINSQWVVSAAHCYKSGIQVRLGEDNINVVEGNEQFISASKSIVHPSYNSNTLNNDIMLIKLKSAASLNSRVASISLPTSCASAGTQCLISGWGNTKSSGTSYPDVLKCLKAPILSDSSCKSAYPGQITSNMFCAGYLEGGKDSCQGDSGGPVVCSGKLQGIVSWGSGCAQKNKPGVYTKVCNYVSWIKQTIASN
Protocol: The stabilization of solutions of trypsin in accordance with the invention was tested. The activity of trypsin was determined using tosyl arginine methyl ester (TAME) as substrate and measuring the absorbance change at 247 nm in a spectrophotometer. Solutions containing 100 μg/ml of trypsin (TPCK-treated, Sigma-Aldrich) in 10 mM HEPES and 0.13 M NaCl, pH 7.4, as well as stabilizers as indicated in Table 3 below were incubated at 37° C., and samples were taken out at various time intervals for activity determination.

bovine thrombin = target: T4, bovine thrombin (Bos taurus, UniProt P00735); assay: Stability of bovine thrombin solutions (T 70%); type: physicochemical; conditions: 0.4 mg/ml bovine thrombin (Baxter) in HEPES buffer, 37° C.
T4 construct: purchased Baxter
Protocol: as §1

human thrombin [3] = target: T1, human thrombin; assay: Stability of human thrombin solutions (fibrinogen clotting activity decay curves, T 70%); type: physicochemical; parameters: The thrombin used in the study is human thrombin derived from plasma; purchased Biovitrum AB, Sweden; host or cells: human plasma; conditions: 1 mg/ml thrombin in 10 mM HEPES, 0.13 M NaCl, pH 7.4
[4] = T 70% relative to 1 mg/ml thrombin without additives, 37° C.
[5] = time to reach 70% of initial activity, 1 mg/ml thrombin in 10 mM HEPES, 0.13 M NaCl, pH 7.4, 37° C.

Molecule: O=S(=O)(O)CCCN1CCOCC1 [MOPS, 3-(N-morpholino)propanesulfonic acid]
increase in stabilization, factor (human thrombin [1]; [4]): 4.7
T 70% (human thrombin [1]; pH 7.4): 7.5 days

Molecule: CCN(CC)CCN [N,N-diethylethylenediamine]
T 70% (plasmin): 8 h
increase in stability of plasmin composition, factor (plasmin): 2.7
T 70% (human thrombin [1]; [5]): 10 days

Molecule: [Cl-].[Na+] [NaCl, reference compound]
Apparent inhibition (%) (human thrombin [2]; 0.05 M added): 17%
Apparent thrombin concentration (U/ml) (human thrombin [2]; 0.05 M added): 74 U/ml
Apparent inhibition (%) (human thrombin [2]; 0.10 M added): 40%
Apparent thrombin concentration (U/ml) (human thrombin [2]; 0.10 M added): 53 U/ml
Apparent inhibition (%) (human thrombin [2]; 0.15 M added): 34%
Apparent thrombin concentration (U/ml) (human thrombin [2]; 0.15 M added): 58 U/ml
Apparent inhibition (%) (human thrombin [2]; 0.20 M added): 37%
Apparent thrombin concentration (U/ml) (human thrombin [2]; 0.20 M added): 55 U/ml

Molecule: aminobenzamidine [reference compound]
T 70% (plasmin): 52 h
increase in stability of plasmin composition, factor (plasmin): 17
increase in stabilization, factor (human thrombin [1]): 12.5
T 70% (human thrombin [1]; pH 7.4): 20 days

Molecule: bovine thrombin: bovine thrombin (Baxter), solution in HEPES buffer without additives
T 70% (bovine thrombin): 1.3 days

Molecule: thrombin
T 70% (human thrombin [3]; refrigerator storage (around 5° C.)): 36 days
T 70% (human thrombin [3]; room temperature (around 21° C.)): 5.4 days
T 70% (human thrombin [1]; 15.0 activity units/ml human thrombin in HEPES buffer, pH 7.4): 23 days

Results, then the molecule that gave them:

T 70% (trypsin): 43 h
increase in stabilization of trypsin, factor (trypsin): 72
T 70% (plasmin): 16 h
Molecule: N=C(N)c1ccccc1 [benzamidine, reference compound]

T 70% (trypsin): 8 h
increase in stabilization of trypsin, factor (trypsin): 13
Apparent inhibition (%) (human thrombin [2]; 0.05 M added): 4%
Apparent thrombin concentration (U/ml) (human thrombin [2]; 0.05 M added): 87 U/ml
Apparent inhibition (%) (human thrombin [2]; 0.10 M added): 20%
Apparent thrombin concentration (U/ml) (human thrombin [2]; 0.10 M added): 71 U/ml
Apparent inhibition (%) (human thrombin [2]; 0.15 M added): 45%
Apparent thrombin concentration (U/ml) (human thrombin [2]; 0.15 M added): 49 U/ml
Apparent inhibition (%) (human thrombin [2]; 0.20 M added): 43%
Apparent thrombin concentration (U/ml) (human thrombin [2]; 0.20 M added): 51 U/ml
inhibitor of thrombin (conclusion) (human thrombin [2]; clotting time prolongation ascribed to ionic strength): not an inhibitor of thrombin
T 70% (plasmin): 12 h
increase in stability of plasmin composition, factor (plasmin): 4
T 70% (human thrombin [1]; [5]): 8.5 days
Molecule: C1COCCN1 [morpholine]

T 70% (human thrombin [1]; [5]): 4.0 days
Molecule: O=S(=O)(O)CCCCN1CCOCC1 [morpholino butyl sulphonic acid]

T 70% (human thrombin [1]; [5]): 3.8 days
Molecule: OCCN1CCOCC1 [morpholino ethyl alcohol]

T 70% (human thrombin [1]; [5]): 3.2 days
Molecule: O=S(=O)(O)CCN1CCOCC1 [morpholino ethyl sulphonic acid]

T 70% (human thrombin [1]; [5]): 4.1 days
Molecule: O=C(O)CCCN1CCOCC1 [morpholino propyl carboxylic acid]

increase in stabilization, factor (human thrombin [1]; [4]): 22
T 70% (human thrombin [1]; time to reach 70% of initial activity, 1 mg/ml thrombin in 10 mM HEPES, 0.13 M NaCl, pH 7.4, 37° C., listed as 1.9 mM N-(2′-phenoxy)-4-aminopyridin): 35 days
T 70% (human thrombin [1]; time to reach 70% of initial activity, 1 mg/ml thrombin in 10 mM HEPES, 0.13 M NaCl, pH 7.4, 37° C., listed as 3.1 mM N-(2′-phenoxy)-4-aminopyridin): 74 days
Molecule: N-(2′-phenoxy)-4-aminopyridin
